Experimental data from patent US20080004270A1, “3,4-Disubstituted Pyrazoles as Cyclin Dependent Kinases (Cdk) or Aurora Kinase or Glycogen Synthase 3 (Gsk-3) Inhibitors” (ASTEX THERAPEUTICS LIMITED, priority 2004, published 2008).
pIC50: −log10 of the molar value.

What was measured:
CDK1/CyclinB = target: T1, CDK1/CyclinB (Homo sapiens, UniProt P06493); test: Activated CDK1/CyclinB kinase inhibitory activity assay; type: biochemical; settings: histone H1 substrate, γ33P-ATP filter assay; read-out: IC50 against CDK1 activity
T1 construct: purchased Upstate Discovery
T1 sequence (P06493 whole entry): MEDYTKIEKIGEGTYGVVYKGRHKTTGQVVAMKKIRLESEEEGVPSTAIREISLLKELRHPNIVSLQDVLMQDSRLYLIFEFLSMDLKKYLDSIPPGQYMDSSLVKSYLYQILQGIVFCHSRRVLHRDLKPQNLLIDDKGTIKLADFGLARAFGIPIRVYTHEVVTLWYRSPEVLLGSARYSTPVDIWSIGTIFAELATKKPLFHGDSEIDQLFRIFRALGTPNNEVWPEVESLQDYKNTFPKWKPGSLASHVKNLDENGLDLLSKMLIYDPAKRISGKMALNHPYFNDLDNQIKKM
T1 sequence (P14635 whole entry partner): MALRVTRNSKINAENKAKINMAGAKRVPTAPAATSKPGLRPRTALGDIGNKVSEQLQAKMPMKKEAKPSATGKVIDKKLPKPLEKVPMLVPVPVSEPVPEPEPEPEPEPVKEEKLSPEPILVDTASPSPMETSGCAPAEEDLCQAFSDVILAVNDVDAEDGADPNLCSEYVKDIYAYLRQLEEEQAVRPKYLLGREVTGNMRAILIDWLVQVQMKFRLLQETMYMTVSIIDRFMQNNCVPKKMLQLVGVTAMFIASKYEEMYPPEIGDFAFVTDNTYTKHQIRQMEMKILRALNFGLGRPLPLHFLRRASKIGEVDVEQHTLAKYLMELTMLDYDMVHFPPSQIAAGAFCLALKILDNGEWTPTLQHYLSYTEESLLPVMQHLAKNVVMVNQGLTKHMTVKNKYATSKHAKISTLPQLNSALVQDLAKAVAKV
Experimental: (§1) Activated CDK2/CyclinA (Brown et al, Nat. Cell Biol., 1, pp 438-443, 1999; Lowe, E. D., et al Biochemistry, 41, pp 15625-15634, 2002) is diluted to 125 pM in 2.5× strength assay buffer (50 mM MOPS pH 7.2, 62.5 mM β-glycerophosphate, 12.5 mM EDTA, 37.5 mM MgCl2, […], 2.5 mM DTT, 2.5 mM sodium orthovanadate, 0.25 mg/ml bovine serum albumin), and 10 μl mixed with 10 μl of histone substrate mix (60 μl bovine histone H1 (Upstate Biotechnology, 5 mg/ml), 940 μl H2O, 35 μCi γ^33P-ATP) and added to 96 well plates along with 5 μl of various dilutions of the test compound in DMSO (up to 2.5%). The reaction is allowed to proceed for 2 to 4 hours before being stopped with an excess of ortho-phosphoric acid (5 μl at 2%).
(§2) γ^33P-ATP which remains unincorporated into the histone H1 is separated from phosphorylated histone H1 on a Millipore MAPH filter plate. The wells of the MAPH plate are wetted with 0.5% orthophosphoric acid, and then the results of the reaction are filtered with a Millipore vacuum filtration unit through the wells. Following filtration, the residue is washed twice with 200 μl of 0.5% orthophosphoric acid. Once the filters have dried, 20 μl of Microscint 20 scintillant is added, and then counted on a Packard Topcount for 30 seconds.
(§3) The % inhibition of the CDK2 activity is calculated and plotted in order to determine the concentration of test compound required to inhibit 50% of the CDK2 activity (IC50).
CDK1/CyclinB assay is identical to the CDK2/CyclinA above except that CDK1/CyclinB (Upstate Discovery) is used and the enzyme is diluted to 6.25 nM.

Activated CDK2/CyclinA = Activated CDK2/CyclinA (Homo sapiens, UniProt P24941); test: Activated CDK2/CyclinA kinase inhibitory activity assay; type: biochemical; settings: histone H1 substrate, γ33P-ATP filter assay; read-out: IC50 against CDK2 activity
Experimental: Compounds of the invention were tested for kinase inhibitory activity using the following protocol.
as §1, §2, §3

O=C(Nc1c[nH]nc1-c1nc2c([nH]1)CCN(CCF)C2)c1c(F)cccc1F [Example 7, 2,6-difluoro-N-{3-[5-(2-fluoro-ethyl)-4,5,6,7-tetrahydro-1H-imidazol[4,5-c]pyridine-2-yl]-1H-pyrazol-4-yl}-benzamide] gave a pIC50 (CDK1/CyclinB) of over 6.00 and a pIC50 (Activated CDK2/CyclinA) of over 6.00.

O=C(Nc1c[nH]nc1-c1nc2c([nH]1)CCNC2)c1c(F)cccc1F [Example 4, 2,6-difluoro-N-[3-(4,5,6,7-tetrahydro-1H-imidazol[4,5-c]pyridin-2-yl)-1H-pyrazol-4-yl]-benzamide] gave a pIC50 (CDK1/CyclinB) of over 6.00 and a pIC50 (Activated CDK2/CyclinA) of over 6.00.

Work on O=C(Nc1c[nH]nc1-c1nc2cc[nH]c(=O)c2[nH]1)c1c(F)cccc1F [Example 1, 2,6-difluoro-N-[3-(4-oxo-4,5-dihydro-3H-imidazo[4,5-c]pyridin-2-yl)-1H-pyrazol-4-yl]-benzamide] yielded a pIC50 (CDK1/CyclinB) of over 6.00 and a pIC50 (Activated CDK2/CyclinA) of over 6.00.

For CCN1CCc2[nH]c(-c3n[nH]cc3NC(=O)c3c(F)cccc3F)nc2C1 [Example 6, N-[3-(5-ethyl-4,5,6,7-tetrahydro-1H-imidazo[4,5-c]pyridine-2-yl)-1H-pyrazol-4-yl]-2,6-difluoro-benzamide], the pIC50 (CDK1/CyclinB) was over 6.00 and the pIC50 (Activated CDK2/CyclinA) was over 6.00.
